# pIC50: −log10 of the molar value.
# Biological target: full-length human PRMT8 isoform 1 (Homo sapiens, UniProt Q9NR22)
# Experiment: PRMT8 Biochemical Assay (3H-SAM Flashplate, peptide substrate)
# Conditions: single experiment or average of multiple experiments; read-out: Biochemical IC50 PRMT8
# Summary of the method: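 Scintillation Flashplate capture of biotinylated histone H4 (31-45) peptide (150 nM) methylated by 1.5 nM PRMT8 using 3H-SAM (50 nM) with unlabelled SAM (550 nM); enzyme and compound preincubated 30 min, room temperature, in Bicine pH 7.6 buffer with TCEP, BSG, Tween 20 and 2% DMSO. Stopped with excess cold SAM (400 uM); IC50 from % inhibition, min control 1 mM SAH.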
# Chain of full-length human PRMT8 isoform 1 (Q9NR22 whole entry, canonical isoform): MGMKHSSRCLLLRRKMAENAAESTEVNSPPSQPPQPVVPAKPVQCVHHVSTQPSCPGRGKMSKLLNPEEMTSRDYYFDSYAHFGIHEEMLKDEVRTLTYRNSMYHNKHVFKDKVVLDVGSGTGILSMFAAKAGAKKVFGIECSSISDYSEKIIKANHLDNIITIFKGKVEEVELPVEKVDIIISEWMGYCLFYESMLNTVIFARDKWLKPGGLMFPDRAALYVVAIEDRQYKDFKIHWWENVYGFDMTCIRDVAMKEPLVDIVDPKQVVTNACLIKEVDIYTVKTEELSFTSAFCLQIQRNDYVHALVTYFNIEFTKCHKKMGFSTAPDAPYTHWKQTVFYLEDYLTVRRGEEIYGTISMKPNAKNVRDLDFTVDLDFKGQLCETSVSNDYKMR
structure (smiles),measurement,value
CNCCN(C)Cc1c[nH]nc1C#Cc1ccccc1 [Compound 3],pIC50,6.02
